The species named for series [1] is Homo sapiens. The series is described as follows: (§1) Inhibition of IL6 secretion in LPS/IL-1beta-stimulated human primary microglia compound pretreated at 10 uM for 30 mins before stimulation measured after 24 hrs by ELISA. It is filed as functional. (In general: In an ELISA, binding on a coated surface is turned into a signal by an enzyme label.)
In series [2] the target is Leucine-rich repeat serine/threonine-protein kinase 2 (Homo sapiens, UniProt Q5S007, G2019S). The series is described as follows: Inhibition of LRRK2 G2019S mutant ([…]) (unknown origin) stably expressed in HEK293 cell lysate using [gamma-32P] after 15 mins by Cerenkov counting method. It is filed as cell-free.
The nature of series [3]: Inhibition of IL6 secretion in LPS/IL-1beta-stimulated human U87 cells compound pretreated at 10 uM for 30 mins before stimulation measured after 24 hrs by ELISA. It is filed as functional, U-87MG ATCC. Particulars: U-87 MG.
Series [4] can be described thus: as §1. It is filed as functional.
Series [5] can be described thus: Oral bioavailability in mouse. Particulars: in vivo. It is filed as ADME, organism-based.
The nature of series [6]: Inhibition of IL6 secretion in LPS/IL-1beta-stimulated human primary microglia compound pretreated for 30 mins before stimulation measured after 24 hrs by ELISA. It is filed as functional.
Series [7] can be described thus: Inhibition of IL6 secretion in LPS/IL-1beta-stimulated human U87 cells compound pretreated for 30 mins before stimulation measured after 24 hrs by ELISA. It is filed as functional, cell-based, U-87MG ATCC. The following applies: U-87 MG.
Series [8] in a line: Biochemical index, ratio of IC50 for LRRK2 G2019S mutant (unknown origin) to EC50 for IL6 secretion in LPS/IL-1beta-stimulated human primary microglia.

Active and inactive are the calls of the source. No cut-off for these calls is given here. Where only a bound is given, the exact number is not on record here.

Sequence of Leucine-rich repeat serine/threonine-protein kinase 2 (Q5S007 whole entry G2019S): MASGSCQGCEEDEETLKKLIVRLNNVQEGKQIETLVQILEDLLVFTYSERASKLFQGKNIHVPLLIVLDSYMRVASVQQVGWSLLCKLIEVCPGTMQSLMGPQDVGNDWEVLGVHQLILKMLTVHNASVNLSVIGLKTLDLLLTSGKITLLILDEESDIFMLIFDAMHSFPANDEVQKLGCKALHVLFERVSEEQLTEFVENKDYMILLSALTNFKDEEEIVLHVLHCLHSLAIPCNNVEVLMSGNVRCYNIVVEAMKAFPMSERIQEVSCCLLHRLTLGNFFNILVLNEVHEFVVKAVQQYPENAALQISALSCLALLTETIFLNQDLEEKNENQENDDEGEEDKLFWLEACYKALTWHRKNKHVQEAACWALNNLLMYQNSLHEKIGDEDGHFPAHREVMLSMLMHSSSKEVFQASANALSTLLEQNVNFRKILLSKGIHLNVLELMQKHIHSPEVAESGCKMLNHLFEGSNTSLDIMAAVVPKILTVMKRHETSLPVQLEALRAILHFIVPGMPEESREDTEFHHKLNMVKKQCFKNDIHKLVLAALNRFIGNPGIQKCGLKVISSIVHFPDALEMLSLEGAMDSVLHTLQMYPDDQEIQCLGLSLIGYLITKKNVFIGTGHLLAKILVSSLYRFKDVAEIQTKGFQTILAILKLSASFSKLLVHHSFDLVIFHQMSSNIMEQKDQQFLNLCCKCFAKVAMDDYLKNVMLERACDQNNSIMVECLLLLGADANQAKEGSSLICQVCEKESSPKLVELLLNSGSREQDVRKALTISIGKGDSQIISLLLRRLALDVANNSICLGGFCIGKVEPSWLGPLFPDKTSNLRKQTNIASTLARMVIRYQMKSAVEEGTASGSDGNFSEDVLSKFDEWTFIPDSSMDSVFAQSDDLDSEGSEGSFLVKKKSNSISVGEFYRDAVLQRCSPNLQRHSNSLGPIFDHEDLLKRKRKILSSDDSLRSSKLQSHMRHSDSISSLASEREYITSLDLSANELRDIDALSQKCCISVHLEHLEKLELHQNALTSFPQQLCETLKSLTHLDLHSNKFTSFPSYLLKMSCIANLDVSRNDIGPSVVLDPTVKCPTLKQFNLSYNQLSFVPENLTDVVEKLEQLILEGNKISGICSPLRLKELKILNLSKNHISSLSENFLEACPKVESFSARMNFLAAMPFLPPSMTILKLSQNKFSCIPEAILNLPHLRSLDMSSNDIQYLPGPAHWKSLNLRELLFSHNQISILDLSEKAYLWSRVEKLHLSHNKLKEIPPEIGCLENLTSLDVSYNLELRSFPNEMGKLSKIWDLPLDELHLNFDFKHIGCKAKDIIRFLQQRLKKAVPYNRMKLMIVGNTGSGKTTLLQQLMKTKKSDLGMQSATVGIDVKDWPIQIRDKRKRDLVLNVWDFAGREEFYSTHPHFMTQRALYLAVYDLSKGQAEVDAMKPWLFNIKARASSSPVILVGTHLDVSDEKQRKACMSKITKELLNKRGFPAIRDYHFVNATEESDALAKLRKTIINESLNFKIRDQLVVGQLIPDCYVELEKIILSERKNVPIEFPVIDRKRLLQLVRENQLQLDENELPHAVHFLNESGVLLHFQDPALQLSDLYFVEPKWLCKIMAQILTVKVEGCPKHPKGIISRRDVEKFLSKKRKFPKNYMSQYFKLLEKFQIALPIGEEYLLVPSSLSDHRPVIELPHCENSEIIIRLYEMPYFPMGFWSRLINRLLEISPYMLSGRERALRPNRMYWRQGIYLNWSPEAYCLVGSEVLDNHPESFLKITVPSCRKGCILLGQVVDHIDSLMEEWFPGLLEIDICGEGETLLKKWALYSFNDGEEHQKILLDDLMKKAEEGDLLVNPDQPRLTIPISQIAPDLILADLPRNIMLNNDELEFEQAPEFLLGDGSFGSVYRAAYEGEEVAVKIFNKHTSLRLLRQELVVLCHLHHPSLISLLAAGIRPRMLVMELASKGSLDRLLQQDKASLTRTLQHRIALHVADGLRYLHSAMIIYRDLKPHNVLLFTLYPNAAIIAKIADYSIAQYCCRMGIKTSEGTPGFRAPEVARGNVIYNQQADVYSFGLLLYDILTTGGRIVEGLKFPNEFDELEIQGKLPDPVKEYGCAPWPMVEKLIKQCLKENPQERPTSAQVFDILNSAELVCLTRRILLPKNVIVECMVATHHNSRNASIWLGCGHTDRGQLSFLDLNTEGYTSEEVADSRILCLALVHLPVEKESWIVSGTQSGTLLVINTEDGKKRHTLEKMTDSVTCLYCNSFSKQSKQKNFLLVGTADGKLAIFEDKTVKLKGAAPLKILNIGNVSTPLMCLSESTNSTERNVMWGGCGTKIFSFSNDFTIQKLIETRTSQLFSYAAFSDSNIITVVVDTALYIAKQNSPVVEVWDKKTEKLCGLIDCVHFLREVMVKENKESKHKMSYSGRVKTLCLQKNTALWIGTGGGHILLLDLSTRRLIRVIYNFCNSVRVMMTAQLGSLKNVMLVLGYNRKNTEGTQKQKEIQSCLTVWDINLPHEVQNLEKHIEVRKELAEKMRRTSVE

Broadly, the inhibition is the change of the read-out against control, counted positive when it falls. The IC50 is the concentration needed to halve the response being measured. A lower IC50 goes with greater potency. For the compound `O=C(Nc1ccc(C(=O)N2CCC(N3CCCCC3)CC2)cc1Cl)c1ccc[nH]1`, in series [1], the inhibition result was “inactive”. For the same compound, in series [2], the 50% inhibitory concentration (IC50) was above 1000 nM. For the same compound, in series [3], the inhibition at 10 µM came to 51.9%.

With `O=C(c1ccc(Nc2ccccc2[N+](=O)[O-])c(Cl)c1)N1CCC(N2CCCCC2)CC1`, the results for the inhibition at 10 µM in series [4] and in series [3] were 65.4% and 45.6%, respectively. This compound returned a concentration for half-maximal inhibition (IC50) in series [2] above 1000 nM.

For `Nc1ccc(C(=O)N2CCC(N3CCCCC3)CC2)cc1Cl`, the inhibition at 10 µM in series [4] stood at 16.9%; in series [3] it was 49.9%. This compound also returned a 50% inhibitory concentration (IC50) in series [2] of 654 nM.

Turning to `CN1Cc2ccccc2N(C)c2nc(Nc3ccc(C(=O)N4CCC(N5CCCCC5)CC4)cc3Cl)ncc21`, the inhibition at 10 µM was found to be 70% in series [4] and 58.8% in series [3]. This compound also registered a half-inhibitory concentration (IC50) in series [2] of 51.2 nM.

In the case of `COc1cccc(CNc2ccc(C(=O)N3CCC(N4CCCCC4)CC3)cc2Cl)c1`, the inhibition at 10 µM was determined as 52.9% in series [4] and 52% in series [3]. In series [2], the IC50 is above 1000 nM.

Consider `O=C(c1ccc(NCc2ccc([N+](=O)[O-])cc2)c(Cl)c1)N1CCC(N2CCCCC2)CC1`, for which the inhibition at 10 µM is 56.3% in series [4] and 56.4% in series [3]. Also, the 50% inhibitory concentration (IC50) in series [2] was above 1000 nM.

For `O=C(c1ccc(Nc2ncccn2)c(Cl)c1)N1CCC(N2CCCCC2)CC1`, the inhibition at 10 µM in series [4] came to 46.4%; in series [3], 39.3%. The half-inhibitory concentration (IC50) in series [2] is above 1000 nM.

For the compound `O=C(c1ccc(Nc2cncnc2)c(Cl)c1)N1CCC(N2CCCCC2)CC1`, the IC50 in series [2] was above 1000 nM. The inhibition at 10 µM in series [3] amounted to 40.7%.

As to `O=C(c1ccc(NCc2ccccc2)c(Cl)c1)N1CCC(N2CCCCC2)CC1`, the inhibition at 10 µM in series [4] amounted to 65.3%; in series [3], 62.6%. In series [2], this compound came in with an IC50 above 1000 nM.

`CN1C(=O)c2ccccc2N(C)c2nc(Cl)ncc21`: the inhibition at 10 µM in series [4] turned out to be 18%; in series [3], 23.2%. Moreover, the IC50 in series [2] is above 1000 nM.

`Cc1ccc(Nc2ccc(C(=O)N3CCC(N4CCCCC4)CC3)cc2Cl)cc1`: the inhibition at 10 µM in series [4] is 29.7%; in series [3], 37.8%. The half-inhibitory concentration (IC50) in series [2] was above 1000 nM.

Consider `Cc1ccc(CNc2ccc(C(=O)N3CCC(N4CCCCC4)CC3)cc2Cl)cc1`, for which the inhibition at 10 µM in series [4] stood at 42%; in series [3], 36.1%. Also, in series [2], the IC50 is above 1000 nM.

A word on the bioavailability: it is the share of a dose that reaches the circulation, judged against a reference dose that is usually intravenous. Low values mean poor availability, high ones good availability. Usually EC50 stands for the concentration that produces a half-maximal response. `COc1cc(C(=O)N2CCC(N3CCN(C)CC3)CC2)ccc1Nc1ncc2c(n1)N(C)c1ccccc1C(=O)N2C` had a bioavailability in series [5] of 49.3%. In addition, the inhibition at 10 µM in series [4] was found to be 95%; in series [3], 94.1%. The 50% effective concentration (EC50) in series [6] is 830 nM; in series [7], 660 nM. This compound yielded an IC50 in series [2] of 7.9 nM. In series [8], the “Ratio IC50/EC50” value is listed as 0.009.

With `CC(=O)Nc1ccc(Nc2ccc(C(=O)N3CCC(N4CCCCC4)CC3)cc2Cl)cc1`, the inhibition at 10 µM in series [4] turned out to be 31.8%; in series [3], 36.1%. Besides, in series [2], the IC50 was above 1000 nM.

On to `CN1Cc2ccccc2N(C)c2nc(Cl)ncc21`, for which the inhibition at 10 µM is 6.3% in series [4] and 64.6% in series [3]. The IC50 in series [2] was above 1000 nM.

For the compound `O=C(c1ccc(Nc2ccccc2)c(Cl)c1)N1CCC(N2CCCCC2)CC1`, the inhibition at 10 µM in series [4] was 44.7%; in series [3], 32.3%. Further, in series [2], the concentration for half-maximal inhibition (IC50) was above 1000 nM.

Turning to `O=C(c1ccc(Nc2ccc([N+](=O)[O-])cc2)c(Cl)c1)N1CCC(N2CCCCC2)CC1`, the figures for the inhibition at 10 µM in series [4] and in series [3] were 53.6% and 47.9%, respectively. Further, the IC50 in series [2] is above 1000 nM.

`CN1C(=O)c2ccccc2N(C)c2nc(Nc3ccc(C(=O)N4CCC(N5CCCCC5)CC4)cc3Cl)ncc21`: the figures for the inhibition at 10 µM in series [4] and in series [3] were 81.3% and 87.9%, respectively. Further, the figures for the EC50 in series [6] and in series [7] were 4260 nM and 3680 nM, respectively. In series [2], the IC50 turned out to be 72 nM. In addition, in series [8], the “Ratio IC50/EC50” value is 0.017.

Regarding `Cn1cccc1CNc1ccc(C(=O)N2CCC(N3CCCCC3)CC2)cc1Cl`, the inhibition at 10 µM stood at 17.3% in series [4] and 42.4% in series [3]. The IC50 in series [2] was above 1000 nM.

In the case of `COc1ccccc1Nc1ccc(C(=O)N2CCC(N3CCCCC3)CC2)cc1Cl`, the inhibition at 10 µM is 56.6% in series [4] and 58.6% in series [3]. For the same compound, in series [2], the IC50 was above 1000 nM.

As to `O=C(c1ccc(NC2CCCCC2)c(Cl)c1)N1CCC(N2CCCCC2)CC1`, the inhibition at 10 µM in series [4] came out at 82.4%; in series [3] it was 54.2%. In series [2], this compound displayed an IC50 above 1000 nM.

Turning to `COc1cccc(Nc2ccc(C(=O)N3CCC(N4CCCCC4)CC3)cc2Cl)c1`, the inhibition at 10 µM in series [4] worked out at 53%; in series [3] it was 47.8%. This compound also gave a 50% inhibitory concentration (IC50) in series [2] above 1000 nM.

As to `O=C(c1ccc(Nc2cccnc2)c(Cl)c1)N1CCC(N2CCCCC2)CC1`, the inhibition at 10 µM stood at 36.3% in series [4] and 46.6% in series [3]. In series [2], the 50% inhibitory concentration (IC50) was above 1000 nM.

As for `O=C(c1ccc(Nc2ccccn2)c(Cl)c1)N1CCC(N2CCCCC2)CC1`, the inhibition at 10 µM in series [4] came out at 7.3%; in series [3], 46.7%. Moreover, the half-maximal inhibitory concentration (IC50) in series [2] was above 1000 nM.

For the compound `CCCNc1ccc(C(=O)N2CCC(N3CCCCC3)CC2)cc1Cl`, the inhibition at 10 µM in series [4] came out at 47.6%; in series [3] it was 55.8%. This compound showed a 50% inhibitory concentration (IC50) in series [2] above 1000 nM.

For the origin of these results see ChEMBL document CHEMBL3407393, “Optimisation of LRRK2 inhibitors and assessment of functional efficacy in cell-based models of neuroinflammation” (Eur J Med Chem, 2015).
